Measurements taken from patent US20250368624A1, “M24B AMINOPEPTIDASE INHIBITORS FOR CARD8 INFLAMMASOME ACTIVATION” (Memorial Sloan-Kettering Cancer Center, priority 2022, published 2025).

How the values were obtained:
[1] = target: recombinant human PEPD (Homo sapiens (Human), UniProt P12955); experiment: PEPD substrate assay (Ala-Pro cleavage, L-alanine assay kit); type: biochemical; details: for IC50: 50 nM recombinant human PEPD, Ala-Pro 40 μM, 25° C.
Experimental: Protein purification. Human prolidase (PEPD) was generated and purified. XPNPEP1 in pET15-b containing a 6× His tag was expressed in E. coli Rosetta DE3 cells.
Substrate assays. For the PEPD assay, a solution of substrate (Ala-Pro) was prepared in DMSO. 24 μL of 50 nM recombinant human PEPD were added to a 384-well, black, clear-bottom plate (Corning) with 1 μL dipeptide Ala-Pro (final conc. 40 μM). […] For the AMC reporter assays, experiments were performed with cell lysates. 5 μL solution of substrate (2.5 mM Ala-AMC) was added the mixture of 10 μL HEK293T cell lysates (2.5 mg/ml) and 10 μL of indicated compounds in a 384-well, black, clear-bottom plate (Corning) to initiate the reaction. Substrate cleavage was measured as increasing fluorescence signal (Ex/Em: 380/460 nm) recorded at 25° C. for 20 mins. […] H-Lys(abz)-Pro-Pro-pNA substrate was added to a final concentration of 100 μM, and fluorescence was monitored (Ex/Em: 320/410) for 60 mins.

[2] = target: XPNPEP1 (Homo sapiens (Human), UniProt Q9NQW7); experiment: XPNPEP1 substrate assay (H-Lys(abz)-Pro-Pro-pNA); type: biochemical; details: for IC50: XPNPEP1 3.5 nM, substrate 100 μM, 60 mins
Sequence of XPNPEP1 (Q9NQW7 whole entry): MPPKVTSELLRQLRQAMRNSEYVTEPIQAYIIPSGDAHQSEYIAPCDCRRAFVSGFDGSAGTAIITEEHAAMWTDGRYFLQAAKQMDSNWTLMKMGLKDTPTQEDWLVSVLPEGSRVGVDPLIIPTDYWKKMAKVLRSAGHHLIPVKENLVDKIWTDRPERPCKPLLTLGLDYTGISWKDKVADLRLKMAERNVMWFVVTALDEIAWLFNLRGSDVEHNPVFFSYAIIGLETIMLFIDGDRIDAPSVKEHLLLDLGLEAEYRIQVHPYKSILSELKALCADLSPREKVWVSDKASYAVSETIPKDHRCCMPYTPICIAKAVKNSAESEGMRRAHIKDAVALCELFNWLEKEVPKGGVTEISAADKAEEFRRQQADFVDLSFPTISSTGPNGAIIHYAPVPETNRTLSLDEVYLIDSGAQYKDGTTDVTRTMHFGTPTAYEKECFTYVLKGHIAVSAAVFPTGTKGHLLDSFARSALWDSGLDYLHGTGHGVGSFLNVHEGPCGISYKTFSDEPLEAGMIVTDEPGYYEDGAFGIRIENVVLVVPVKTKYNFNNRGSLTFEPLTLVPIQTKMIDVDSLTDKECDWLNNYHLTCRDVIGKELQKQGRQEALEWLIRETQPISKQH
Experimental: Protein purification. Human prolidase (PEPD) was generated and purified. XPNPEP1 in pET15-b containing a 6× His tag was expressed in E. coli Rosetta DE3 cells. Cells were induced with IPTG for 16 h at 37° C., pelleted and lysed in buffer A (20 mM Tris-HCl (pH 7.9), 500 mM NaCl, and 10% (v/v) glycerol) by sonication. Affinity purification chromatography was performed using TALON resin and according to previously published protocols (Li et al., 2008).
Substrate assays. For the PEPD assay, a solution of substrate (Ala-Pro) was prepared in DMSO. 24 μL of 50 nM recombinant human PEPD were added to a 384-well, black, clear-bottom plate (Corning) with 1 μL dipeptide Ala-Pro (final conc. 40 μM). Alanine liberated was measured as increasing fluorescence signal (Resorufin, Ex/Em: 535/587 nm) recorded at 25° C. using an L-alanine assay kit (Abcam, ab83394) at 25° C. according to manufacturer's instructions. For the AMC reporter assays, experiments were performed with cell lysates. 5 μL solution of substrate (2.5 mM Ala-AMC) was added the mixture of 10 μL HEK293T cell lysates (2.5 mg/ml) and 10 μL of indicated compounds in a 384-well, black, clear-bottom plate (Corning) to initiate the reaction. Substrate cleavage was measured as increasing fluorescence signal (Ex/Em: 380/460 nm) recorded at 25° C. for 20 mins. For XPNPEP1 enzymes (XPNPEP1 3.5 nM) were plated on a black 384-well clear bottom plate and treated with the indicated doses of compounds. H-Lys(abz)-Pro-Pro-pNA substrate was added to a final concentration of 100 μM, and fluorescence was monitored (Ex/Em: 320/410) for 60 mins.

[3] = system: MV4;11 WT cells; experiment: CellTiter-Glo cell viability, WT MV4;11 cells; type: cell-based; details: for cytotoxicity to MV4;11 cells (in words) / IC50: 24 h, CTG
Experimental: (§1) CellTiter-Glo cell viability and CytoTox-Fluor cell death assays. Cells were plated (2,000 cells per well) in white, 384-well clear-bottom plates (Corning) using an EL406 Microplate Washer/Dispenser (BioTek) in 25 μL final volume of medium. To the cell plates were added compounds at different concentrations using a pintool (CyBio) and the plates were allowed to incubate in the incubator. After incubation for indicated times, CytoTox-Fluor reagent (Promega, G9262) was added according to the manufacturer's protocol. The assay plates were then incubated for another 30 min before fluorescence was recorded using a Cytation 5 Cell Imaging Multi-Mode Reader (BioTek). Next, CellTiter-Glo reagent (Promega, G7573) was subsequently added to the assay plates following the manufacturer's protocol. Assay plates were shaken on an orbital shaker for 2 min and incubated at 25° C. for 10 min. Luminescence was then read using a Cytation 5 Cell Imaging Multi-Mode Reader (BioTek).

[4] = system: MV4;11 CASP1-/- cells; experiment: CellTiter-Glo cell viability, CASP1-/- MV4;11 cells; type: cell-based; details: 24 h, CTG; for CASP1-independent cell death: WT and CASP1-/- MV4;11 cells
Experimental: Cloning. CASP1^−/− MV4;11 cells^12; CARD8^−/− MV4;11, THP-1, OCI-AML2 cells^14; DPP8/9^−/− THP-1^12; PEPD^−/−, XPNPEP1^−/−, PEPD XPNPEP1^−/− THP-1 cells were generated. Plasmids for CARD8 variants, CASP1, GSDMD, dTAG-CARD8^ZUC were cloned as described previously (Hollingsworth et al., 2021; Johnson et al., 2018; Sharif et al., 2021).
as §1

[5] = Stability in cell culture supernatants; type: in vitro ADME

Sequence of recombinant human PEPD (P12955 whole entry): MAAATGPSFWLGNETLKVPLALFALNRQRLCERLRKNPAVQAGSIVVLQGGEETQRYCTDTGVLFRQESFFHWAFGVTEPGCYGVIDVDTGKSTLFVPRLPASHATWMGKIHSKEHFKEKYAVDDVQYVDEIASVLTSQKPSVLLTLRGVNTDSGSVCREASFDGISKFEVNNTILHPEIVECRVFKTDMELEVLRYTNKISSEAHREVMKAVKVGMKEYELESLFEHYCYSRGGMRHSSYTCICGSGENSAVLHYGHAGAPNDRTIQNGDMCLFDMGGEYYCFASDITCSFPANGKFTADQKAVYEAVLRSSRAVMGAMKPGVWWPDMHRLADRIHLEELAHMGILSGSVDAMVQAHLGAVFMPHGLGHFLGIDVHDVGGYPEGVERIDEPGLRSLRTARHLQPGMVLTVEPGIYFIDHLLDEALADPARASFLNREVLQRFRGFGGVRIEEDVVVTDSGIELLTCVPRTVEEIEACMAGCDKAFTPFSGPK

| Structure (SMILES) | IC50 [1] [µM] | IC50 [2] [µM] | cytotoxicity to MV4;11 cells (in words) [3] | other results |
| --- | --- | --- | --- | --- |
| CC(C)C[C@@H](N)[C@H](O)C(=O)N1CCC[C@H]1CNS(C)(=O)=O [CQ53, N—(((S)-1-((2S,3R)-3-amino-2-hydroxy-5-methylhexanoyl)pyrrolidin-2-yl)methyl)methanesulfon-amide] | > 100 | 12 | inactive in cells |  |
| CC(C)CCNC(=O)[C@@H]1CCCN1C(=O)[C@@H](O)[C@H](N)CC(C)C [CQ95, (S)-1-((2S,3R)-3-amino-2-hydroxy-5-methylhexanoyl)-N-isopentylpyrrolidine-2-carboxamide] | 0.29 | 140 |  | overall activity (PEPD/XPNPEP1 inhibition and cytotoxicity, Table 6 and FIG. 2), in words [3]: retained similar PEPD/XPNPEP1 inhibition and cytotoxicity as CQ31 |
| COC(=O)[C@H](C)NC(=O)[C@@H]1CCCN1C(=O)[C@@H]1CCCN1C(=O)[C@@H](O)[C@H](N)CC(C)C [CQ50, Methyl ((2S,3R)-3-amino-2-hydroxy-5-methylhexanoyl)-L-prolyl-L-prolyl-L-alaninate] | 11 | 8.1 |  | IC50 ([4]; Homo sapiens, MV4-11): > 100 µM; IC50 ([3]; Homo sapiens, MV4-11): 35 µM |
| COC(=O)[C@@H]1CCCN1C(=O)[C@@H](O)[C@H](N)C12CC3CC(CC(C3)C1)C2 [CQ47, Methyl ((2S,3R)-3-(adamantan-1-yl)-3-amino-2-hydroxypropanoyl)-L-prolinate] | 12 | 33 | almost completely inactive |  |
| COC(=O)[C@@H]1CCCN1C(=O)[C@@H](O)[C@H](N)CCCCO [CQ75] | 0.3 | 115 | lost cytotoxicity | PEPD inhibition (in words) [1]: retained PEPD inhibition |
| CC[C@H](C)[C@H](NC(=O)[C@@H]1CCCN1C(=O)[C@@H](O)[C@H](N)CC(C)C)C(=O)OC [CQ81, Methyl ((2S,3R)-3-amino-2-hydroxy-5-methylhexanoyl)-L-prolyl-L-isoleucinate] | 0.84 | 23 |  | IC50 ([4]; Homo sapiens, MV4-11): > 20 µM; IC50 ([3]; Homo sapiens, MV4-11): 0.6 µM |
| COC(=O)[C@H](Cc1ccccc1)NC(=O)[C@@H]1CCCN1C(=O)[C@@H](O)[C@H](N)CC(C)C [CQ79, Methyl ((2S,3R)-3-amino-2-hydroxy-5-methylhexanoyl)-L-prolyl-L-phenylalaninate] | 0.72 | 48 |  | IC50 ([4]; Homo sapiens, MV4-11): > 20 µM; IC50 ([3]; Homo sapiens, MV4-11): 0.66 µM |
| CC(C)C[C@@H](N)[C@H](O)C(=O)N1CCC[C@H]1C(=O)OC1CCCC1 [CQ94, Cyclopentyl ((2S,3R)-3-amino-2-hydroxy-5-methylhexanoyl)-L-prolinate] |  |  | slightly more toxic | PEPD inhibition (in words) [1]: inhibited PEPD and XPNPEP1 inhibitors similarly; XPNPEP1 inhibition (in words) [2]: inhibited PEPD and XPNPEP1 inhibitors similarly |
| CC(C)C[C@H](NC(=O)[C@@H]1CCCN1C(=O)[C@@H](O)[C@H](N)CC(C)C)C(=O)NCCc1ccccc1 [CQ116, (S)-1-((2S,3R)-3-amino-2-hydroxy-5-methylhexanoyl)-N—((S)-4-methyl-1-oxo-1-(phenethylamino)pentan-2-yl)pyrrolidine-2-carboxamide] | 5.7 | 3.4 |  | stability in cell culture supernatants (in words) [5]: completely stable |
| COC(=O)[C@@H]1CCCN1C(=O)[C@@H](O)[C@H](N)C1CC1 [CQ62, Methyl ((2S,3R)-3-amino-3-cyclopropyl-2-hydroxypropanoyl)-L-prolinate] | 4.2 | 66 | almost completely inactive |  |
| COC(=O)[C@H](CC(C)C)NC(=O)[C@@H](O)[C@H](N)Cc1ccccc1 [MeBs, bestatin methyl ester, reference compound] |  |  |  | CASP1-independent cell death [4]: CASP1-independent cell death |
| COC(=O)[C@H](Cc1ccccc1)NC(=O)[C@@H](O)[C@H](N)CC(C)C [CQ72, Methyl ((2S,3R)-3-amino-2-hydroxy-5-methylhexanoyl)-L-phenylalaninate] | > 100 | 96 |  | PEPD inhibition (in words) [1]: very weak PEPD and XPNPEP1 inhibitors; CASP1-independent cell death [4]: triggered CASP1-independent cell death; XPNPEP1 inhibition (in words) [2]: very weak PEPD and XPNPEP1 inhibitors |
| COC(=O)[C@@H]1C[C@H](O)CN1C(=O)[C@@H](O)[C@H](N)CC(C)C [CQ39, Methyl (2S,4S)-1-((2S,3R)-3-amino-2-hydroxy-5-methylhexanoyl)-4-hydroxypyrrolidine-2-carboxylate] | > 100 | 190 |  | overall activity (PEPD/XPNPEP1 inhibition and cytotoxicity, Table 6 and FIG. 2), in words [3]: completely inactive |
| C[C@H](NC(=O)[C@@H]1CCCN1C(=O)[C@@H]1CCCN1C(=O)[C@@H](O)[C@H](N)Cc1ccccc1)C(N)=O [Apstatin, apstatin, reference compound] |  | 18 | not cytotoxic at all | IC50 [4]: > 20 µM; IC50 [3]: > 20 µM |
| COC(=O)[C@H](CC(C)C)NC(=O)[C@@H](O)[C@H](N)CC(C)C [CQ52, Methyl ((2S,3R)-3-amino-2-hydroxy-5-methylhexanoyl)-L-leucinate] | 51 | 57 |  | PEPD inhibition (in words) [1]: very weak PEPD and XPNPEP1 inhibitors; CASP1-independent cell death [4]: triggered CASP1-independent cell death; XPNPEP1 inhibition (in words) [2]: very weak PEPD and XPNPEP1 inhibitors |
| CONC(=O)[C@@H]1CCCN1C(=O)[C@@H](O)[C@H](N)CC(C)C [CQ55, (S)-1-((2S,3R)-3-amino-2-hydroxy-5-methylhexanoyl)-N-methoxypyrrolidine-2-carboxamide] | 1.6 | 303 | inactive in cells |  |
| CC(C)C[C@@H](N)[C@H](O)C(=O)N1CCC[C@H]1C(N)=O [CQ49, (S)-1-((2S,3R)-3-amino-2-hydroxy-5-methylhexanoyl)pyrrolidine-2-carboxamide] | 0.28 | 53 |  | overall activity (PEPD/XPNPEP1 inhibition and cytotoxicity, Table 6 and FIG. 2), in words [3]: retained similar PEPD/XPNPEP1 inhibition and cytotoxicity as CQ31 |
| CC(C)C[C@@H](N)[C@H](O)C(=O)N1CCC[C@H]1C(=O)OC(C)(C)C [CQ34, tert-butyl ((2S,3R)-3-amino-2-hydroxy-5-methylhexanoyl)-L-prolinate] |  |  | slightly more toxic | stability in cell culture supernatants (in words) [5]: considerably more stable than CQ31 or CQ94; time after which completely hydrolyzed ([5]; cell culture supernatants): ≤ 8 h; PEPD inhibition (in words) [1]: inhibited PEPD and XPNPEP1 inhibitors similarly; XPNPEP1 inhibition (in words) [2]: inhibited PEPD and XPNPEP1 inhibitors similarly |
